Consider 3 molecules from paper PMC11901438, “Synthesis and Evaluation of Boron-Containing Heterocyclic Compounds with Antimicrobial and Anticancer Activities” (Molecules, 2025).

Converted amounts (≈) assume the structure as drawn.

For experiment [1], the system named is T. rubrum (ATCC 1890, ATCC 18759). Set-up: method as in PMID 17588934. As to conditions: cited from earlier work.
The test system of experiment [2] is T. mentagrophytes (ATCC 28185). The arrangement: method as in PMID 17588934. Conditions: cited from earlier work.
Experiment [3] deals with M. audouinii (ATCC 42558). The arrangement: method as in PMID 17588934. As to conditions: cited from earlier work.
Another experiment deals with M. gypseum (ATCC 24103). The arrangement: method as in PMID 17588934. Conditions: cited from earlier work.
For experiment [4], the system named is E. floccosum (ATCC 525066). The arrangement: method as in PMID 17588934. As to conditions: cited from earlier work.
The next experiment deals with T. mentagrophytes. Set-up: method as in PMID 29371574. As to conditions: cited from earlier work.
The test system of a further experiment is T. rubrum. The arrangement: method as in PMID 29371574. As to conditions: cited from earlier work.
On the set-up of experiment [5]: method as in PMID 26640371. As to conditions: cited from earlier work.
For experiment [6], the target named is leucyl-tRNA synthetase (LeuRS). The arrangement: method as in PMID 28953378, PMID 38365949. As to conditions: cited from earlier work.
The test system of experiment [7] is M. tuberculosis H37Rv strains. As to conditions: cited from earlier work.
In the next experiment the test system is C. albicans ATCC 90028. Description: Antifungal susceptibility test (CLSI M27-A3 microdilution, resazurin), MIC90. Conditions: Candida albicans, ATCC90028, read-out: C. albicans ATCC 90028 MIC90. (In general: Dilution methods test growth across graded concentrations, often in twofold steps.)

As for `OB1OCc2cc(F)ccc21` [Tavaborole], the MIC in experiment [1] is reported as 2.0 µg/mL (≈ 13.2 µM); in experiment [2] it was 2.0 µg/mL (≈ 13.2 µM); in experiment [3], 2.0 µg/mL (≈ 13.2 µM); in the experiment on M. gypseum (ATCC 24103), 2.0 µg/mL (≈ 13.2 µM); in experiment [4] it was 1.0 µg/mL (≈ 6.58 µM). For the same molecule, the “MIC (fungistatic effects)” value in the experiment on T. mentagrophytes and in the experiment on T. rubrum was 8 µg/mL (≈ 52.7 µM) each time. In [5], the “rate of complete cure” value is on record as at most 10%. Besides, the “rate of mycological cure” value in experiment [5] is “up to 36%”.
For `NC[C@H]1OB(O)c2c(OCCO)ccc(Cl)c21` [ganfeborole, (S)-3-(aminomethyl)-4-chloro-7-(2-hydroxyethoxy)benzo[c][1,2]oxaborol-1(3H)-ol], the IC50 in [6] was 200 nM. In [7], the MIC90 was 0.08 µM (≈ 0.0206 µg/mL) and the “MIC against M. tuberculosis H37Rv strains” value is listed as 0.08 µM (≈ 0.0206 µg/mL).
Regarding `CCC(C)n1ncn(-c2ccc(N3CCN(c4ccc(OCC5COC(Cn6cncn6)(c6ccc(Cl)cc6Cl)O5)cc4)CC3)cc2)c1=O` (stereo not shown) [Itraconazole], the MIC90 with C. albicans ATCC 90028 is 0.00034 µM (≈ 0.00024 µg/mL).

One may read the MIC as the smallest concentration in the dilution series that meets the test's criterion for growth inhibition. What is called IC50 is the point on the concentration scale where inhibition reaches its midpoint. As a reminder, the MIC90 is an inhibitory concentration at the 90% level, which refers to growth in some studies and to a panel of isolates in others.
